Tested on: HuapoAI transgenic mice
Assay: Evaluation of triglyceride and cholesterol level in HuapoAI transgenic mice
Type: in vivo
Details: Mus musculus, 168 h, 30 mg/kg daily oral gavage 7 days; for change in vivo at 30 mg/kg: percent increase in FPLC HDLc area under the curve; for inhibition in vivo at 30 mg/kg: serum, male human apoAI transgenic mice, read-out: % Triglyceride Reduction
Experimental: Five to six week old male mice, transgenic for human apoAI [C57Bl/6-tgn(apoa1)lrub, Jackson Laboratory, Bar Harbor, Me.] were housed five per cage (10″×20″×8″ with aspen chip bedding) with food (Purina 5001) and water available at all times. After an acclimation period of 2 weeks, animals were individually identified by ear notches, weighed, and assigned to groups based on body weight. Beginning the following morning, mice were dosed daily by oral gavage for 7 days using a 20 gauge, 1½″ curved disposable feeding needle (Popper & Sons). Treatments were test compounds (30 mg/kg), a positive control (fenofibrate, 100 mg/kg) or vehicle [1% carboxymethylcellulose (w/v)/0.25% Tween80 (w/v); 0.2 ml/mouse]. Prior to termination on day 7, mice were weighed and dosed. Three hours after dosing, animals were anesthetized by inhalation of isoflurane (2-4%; Abbott Laboratories, Chicago, Ill.) and blood obtained via cardiac puncture (0.7-1.0 ml). Whole blood was transferred to serum separator tubes (Vacutainer SST), chilled on ice, and permitted to clot. Serum was obtained after centrifugation at 4° C. and frozen until analysis for triglycerides, total cholesterol, compound levels, and serum lipoprotein profile by fast protein liquid chromatography (FPLC) coupled to an inline detection system. After sacrifice by cervical dislocation, the liver, heart and epididymal fat pads were excised and weighed.
The animals dosed with vehicle had average triglycerides values of 60-80 mg/dl, which were reduced by the positive control fenofibrate (33-58 mg/dl with a mean reduction of 37%). The animals dosed with vehicle had average total serum cholesterol values of 140-180 mg/dl, which were increased by fenofibrate (190-280 mg/dl, with a mean elevation of 41%). […] Fenofibrate increased the amount of HDLc (68-96 v-sec with a mean percent increase of 48%).
Glucose was measured colorimetrically using commercially purchased reagents (Sigma #315-500). According to the manufacturers, the procedures were modified from published work (McGowan, M. W., Artiss, J. D., Strandbergh, D. R. & Zak, B. Clin Chem, 20:470-5 (1974) and Keston, A. Specific colorimetric enzymatic analytical reagents for glucose. Abstract of papers 129th Meeting ACS, 31C (1956).); and depend on the release of a mole of hydrogen peroxide for each mole of analyte, coupled with a color reaction first described by Trinder (Trinder, P. Determination of glucose in blood using glucose oxidase with an alternative oxygen acceptor. Ann Clin Biochem, 6:24 (1969)). The absorbance of the dye produced is linearly related to the analyte in the sample. The assays were further modified in our laboratory for use in a 96 well format. Standards (Sigma #339-11, Sigma #16-11, and Sigma #CC0534 for glucose triglycerides and total cholesterol, respectively), quality control plasma (Sigma # A2034), and samples (2 or 5 μl/well) were measured in duplicate using 200 μl of reagent. An additional aliquot of sample, pipetted to a third well and diluted in 200 μl water, provided a blank for each specimen. Plates were incubated at room temperature (18, 15, and 10 minutes for glucose, triglycerides and total cholesterol, respectively) on a plate shaker (DPC Micormix 5) and absorbance read at 500 nm (glucose and total cholesterol) or 540 nm (triglycerides) on a plate reader (Wallac Victor 1420). Sample absorbances were compared to a standard curve (100-800, 10-500, and 100-400 mg/dl for glucose, triglycerides and total cholesterol, respectively). Values for the quality control sample were always within the expected range and the coefficient of variation for samples was below 10%. All samples from an experiment were assayed at the same time to minimize inter-assay variability.
Serum lipoproteins were separated and cholesterol quantitated with an in-line detection system. Sample was applied to a Superose® 6 HR 10/30 size exclusion column (Amersham Pharmacia Biotech) and eluted with phosphate buffered saline-EDTA at 0.5 ml/min. […]

Cc1oc(-c2ccccc2)nc1CCOc1ccc(OC(C)(C)C(=O)O)cc1 [Example 1, 2-Methyl-2-{4-[2-(5-methyl-2-phenyloxazol-4-yl)ethoxy]phenoxy}propionic acid]
change in vivo at 30 mg/kg: 77% | inhibition in vivo at 30 mg/kg: 79.2%

Cc1oc(-c2cccc(Br)c2)nc1CCOc1ccc(OC(C)(C)C(=O)O)cc1 [Example 9A, 2-(4-{2-[2-(3-Bromophenyl)-5-methyloxazol-4-yl]ethoxy}phenoxy)-2-methylpropionic acid]
change in vivo at 30 mg/kg: 118% | inhibition in vivo at 30 mg/kg: 67.1%

CCc1cccc(-c2nc(CCOc3ccc(OC(C)(C)C(=O)O)cc3)c(C)o2)c1 [Example 12, 2-(4-{2-[2-(3-Ethylphenyl)-5-methyloxazol-4-yl]ethoxy}phenoxy)-2-methylpropionic acid]
change in vivo at 30 mg/kg: 180% | inhibition in vivo at 30 mg/kg: 74.3%

Cc1oc(-c2cccc(CCc3ccccc3)c2)nc1CCOc1ccc(OC(C)(C)C(=O)O)cc1 [Example 12A, 2-Methyl-2-(4-{2-[5-methyl-2-(3-phenethylphenyl)oxazol-4-yl]ethoxy}phenoxy)-propionic acid]
change in vivo at 30 mg/kg: 47%

CCc1ccc(-c2nc(CCOc3ccc(OC(C)(C)C(=O)O)cc3)c(C)o2)cc1 [Example 13, 2-(4-{2-[2-(4-Ethylphenyl)-5-methyloxazol-4-yl]ethoxy}phenoxy)-2-methylpropionic acid]
change in vivo at 30 mg/kg: 133% | inhibition in vivo at 30 mg/kg: 44.8%

Cc1oc(-c2ccc(OC3CCCCC3)cc2)nc1CCOc1ccc(OC(C)(C)C(=O)O)cc1 [Example 21, 2-(4-{2-[2-(4-Cyclohexyloxy-phenyl)-5-methyl-oxazol-4-yl]-ethoxy}-phenoxy)-2-methyl-propionic acid]
change in vivo at 30 mg/kg: 9%

Cc1cc(OCCc2nc(-c3ccccc3)oc2C)ccc1OC(C)(C)C(=O)O [Example 24, 2-Methyl-2-{2-methyl-4-[2-(5-methyl-2-phenyloxazol-4-yl)ethoxy]phenoxy}propionic acid]
change in vivo at 30 mg/kg: 61% | inhibition in vivo at 30 mg/kg: 75%

CCCc1cc(OCCc2nc(-c3ccccc3)oc2C)ccc1OCC(=O)O [Example 26, {4-[2-(5-methyl-2-phenyl-oxazol-4-yl)ethoxy]-2-propylphenoxy}acetic acid]
change in vivo at 30 mg/kg: 19% | inhibition in vivo at 30 mg/kg: 25.5%

CCCc1cc(OCCc2nc(-c3ccccc3)oc2C)ccc1OC(C)(C)C(=O)O [Example 26A, 2-Methyl-2-{4-[2-(5-methyl-2-phenyloxazol-4-yl)ethoxy]-2-propylphenoxy}propionic acid]
change in vivo at 30 mg/kg: 43% | inhibition in vivo at 30 mg/kg: 35.9%

CCCc1cc(OC(C)(C)C(=O)O)ccc1OCCc1nc(-c2ccccc2)oc1C [Example 27A, 2-Methyl-2-{4-[2-(5-methyl-2-phenyloxazol-4-yl)ethoxy]-3-propylphenoxy}propionic acid]
change in vivo at 30 mg/kg: 52% | inhibition in vivo at 30 mg/kg: 29.5%

CCc1cc(OCCc2nc(-c3ccccc3)oc2C)ccc1OC(C)(C)C(=O)O [Example 30A, 2-{2-Ethyl-4-[2-(5-methyl-2-phenyloxazol-4-yl)ethoxy]phenoxy}2-methylpropionic acid]
change in vivo at 30 mg/kg: 93% | inhibition in vivo at 30 mg/kg: 51.8%

Cc1oc(-c2ccccc2)nc1CCOc1ccc(OC(C)(C)C(=O)O)c(CC(C)C)c1 [Example 30C, 2-{2-Isobutyl-4-[2-(5-methyl-2-phenyloxazol-4-yl)ethoxy]phenoxy}-2-methylpropionic acid]
change in vivo at 30 mg/kg: 31% | inhibition in vivo at 30 mg/kg: 6.2%

Cc1oc(-c2ccccc2)nc1CCOc1ccc(OC(C)(C)C(=O)O)c(CCc2ccccc2)c1 [Example 30J, 2-Methyl-2-{4-[2-(5-methyl-2-phenyloxazol-4-yl)ethoxy]-2-phenethylphenoxy}propionic acid]
change in vivo at 30 mg/kg: 77%

CCCCc1cc(OC(C)(C)C(=O)O)ccc1OCCc1nc(-c2ccccc2)oc1C [Example 31F, 2-{3-Butyl-4-[2-(5-methyl-2-phenyloxazol-4-yl)ethoxy]phenoxy}-2-methylpropionic acid]
change in vivo at 30 mg/kg: 79% | inhibition in vivo at 30 mg/kg: 35.7%

Cc1oc(-c2ccccc2)nc1CCOc1ccc(OC(C)(C)C(=O)O)c(Cc2ccccc2)c1 [Example 32, 2-{2-Benzyl-4-[2-(5-methyl-2-phenyloxazol-4-yl)ethoxy]phenoxy}-2-methylpropionic acid]
change in vivo at 30 mg/kg: 20%

Cc1oc(-c2ccccc2)nc1CCOc1ccc(OC(C)(C)C(=O)O)c2ccccc12 [Example 37, 2-Methyl-2-{4-[2-(5-methyl-2-phenyl-oxazol-4-yl)-ethoxy]-naphthalen-1-yloxy}-propionic acid]
change in vivo at 30 mg/kg: 94% | inhibition in vivo at 30 mg/kg: 29.9%

Cc1oc(-c2ccccc2)nc1CCOc1ccc(OC(C)(C)C(=O)O)c2c1CCCC2 [Example 38, 2-Methyl-2-{4-[2-(5-methyl-2-phenyl-oxazol-4-yl)-ethoxy]-5,6,7,8-tetrahydro-naphthalen-1-yloxy}-propionic acid]
change in vivo at 30 mg/kg: 86% | inhibition in vivo at 30 mg/kg: 39%

— patent publication US7351728B2, “Oxazolyl-aryloxyacetic acid derivatives and their use as PPAR agonists” (Eli Lilly and Company, priority 2003, dated 2008)
